{"source": "patent US20070259945A1", "about": "“METHOD FOR TREATING PAIN” (ALLERGAN, INC., priority 2005, published 2007)", "key": {"[1]": {"tested_on": "anandamide levels", "test": "Anandamide levels in the PAG after intra-PAG injection", "type": "in vivo", "settings": "rat, 4 μg/rat intra-PAG, measured 20 min following injection", "description": "(§1) The compounds of formula I are novel agents against […], acting by enhancing endocannabinoid levels (via FAAH inhibition) and at the same time by antagonizing TRPV1."}, "[2]": {"tested_on": "nociceptive response to formalin injected into the rat paw", "test": "Formalin test, injection into the periaqueductal grey (PAG)", "type": "in vivo", "description": "as §1"}, "[3]": {"biological_target": "fatty acid amide hydrolase (FAAH) (Rattus norvegicus, UniProt P97612)", "sequence (P97612 whole entry)": "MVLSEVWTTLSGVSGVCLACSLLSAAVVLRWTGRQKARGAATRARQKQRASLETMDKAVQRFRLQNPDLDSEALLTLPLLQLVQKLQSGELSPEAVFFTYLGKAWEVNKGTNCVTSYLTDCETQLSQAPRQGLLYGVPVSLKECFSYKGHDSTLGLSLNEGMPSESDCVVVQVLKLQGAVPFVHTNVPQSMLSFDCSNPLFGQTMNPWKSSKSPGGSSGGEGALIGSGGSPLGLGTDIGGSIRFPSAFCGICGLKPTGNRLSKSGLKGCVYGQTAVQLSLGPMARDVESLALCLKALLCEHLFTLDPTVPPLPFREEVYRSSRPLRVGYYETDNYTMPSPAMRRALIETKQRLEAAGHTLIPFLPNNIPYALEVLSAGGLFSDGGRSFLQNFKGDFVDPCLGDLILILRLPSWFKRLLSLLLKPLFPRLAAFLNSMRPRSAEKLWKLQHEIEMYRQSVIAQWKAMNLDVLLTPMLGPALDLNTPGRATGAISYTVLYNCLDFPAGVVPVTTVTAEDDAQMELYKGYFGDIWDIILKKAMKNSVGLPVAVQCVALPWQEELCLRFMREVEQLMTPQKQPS"}, "[4]": {"biological_target": "TRPV1 channels (Homo sapiens, UniProt Q8NER1)", "sequence (Q8NER1 whole entry)": "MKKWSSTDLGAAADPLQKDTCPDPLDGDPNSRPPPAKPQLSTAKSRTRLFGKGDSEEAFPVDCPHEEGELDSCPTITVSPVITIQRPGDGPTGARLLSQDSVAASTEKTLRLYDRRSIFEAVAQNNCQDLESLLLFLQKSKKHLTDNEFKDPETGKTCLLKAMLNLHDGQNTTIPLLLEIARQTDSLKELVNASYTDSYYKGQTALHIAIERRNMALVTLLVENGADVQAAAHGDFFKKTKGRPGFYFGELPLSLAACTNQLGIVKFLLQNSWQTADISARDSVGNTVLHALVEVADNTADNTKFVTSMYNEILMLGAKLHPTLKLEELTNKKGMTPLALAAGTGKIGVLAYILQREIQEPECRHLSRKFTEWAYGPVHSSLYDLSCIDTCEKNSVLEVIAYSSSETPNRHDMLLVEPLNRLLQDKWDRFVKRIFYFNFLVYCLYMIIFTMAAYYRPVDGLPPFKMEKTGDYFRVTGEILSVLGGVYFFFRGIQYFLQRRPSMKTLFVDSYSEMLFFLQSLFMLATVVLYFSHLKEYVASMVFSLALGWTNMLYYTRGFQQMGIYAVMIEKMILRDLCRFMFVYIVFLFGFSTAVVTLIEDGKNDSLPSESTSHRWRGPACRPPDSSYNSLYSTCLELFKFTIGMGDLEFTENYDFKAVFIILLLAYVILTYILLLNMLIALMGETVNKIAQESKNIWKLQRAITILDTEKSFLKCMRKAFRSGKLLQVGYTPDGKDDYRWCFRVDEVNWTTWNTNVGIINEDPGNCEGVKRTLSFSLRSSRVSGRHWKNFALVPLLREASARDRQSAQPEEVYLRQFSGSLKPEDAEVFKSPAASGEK", "test": "Blocking of TRPV1 channel activation by capsaicin", "type": "cell-based", "settings": "capsaicin 100 nM; FIG. 1A; read-out: IC50 against capsaicin"}, "[5]": {"tested_on": "nocifensive response to formalin", "test": "Formalin test, injection into the paw", "type": "in vivo", "settings": "injected into the paw; counteracted by AM251 and occluded by capsazepine", "description": "as §1"}}, "data": [{"compound": "CCCCCC=CCC=CCC=CCC=CCCCC(=O)NCCc1c[nH]c2ccc(O)cc12", "note": "[AA-5-HT, N-arachidonoyl-serotonin]", "values": [{"measurement": "anandamide levels in the PAG", "setting": "[1]", "value": "elevated"}, {"measurement": "nociceptive response to formalin", "setting": "[2]; 4 μg/rat injected directly into PAG", "value": "potently inhibits both phases"}, {"measurement": "anti-hyperalgesic effect in presence of CB1 receptor antagonist AM251", "setting": "[2]; intra-PAG, with AM251 (nmol/rat)", "value": "counteracted"}, {"measurement": "anti-hyperalgesic effect in presence of TRPV1 antagonist capsazepine", "setting": "[2]; intra-PAG, with capsazepine 6 nmol/rat", "value": "occluded"}, {"measurement": "type of FAAH inhibition", "setting": "[3]", "value": "mixed inhibitors"}, {"measurement": "IC50", "setting": "[4]", "value": 130, "unit": "nM"}, {"measurement": "nocifensive response to formalin", "setting": "[5]", "value": "selectively block the 2nd, inflammatory phase"}]}]}
